The values that follow come from patent US20030114388A1, “Auxiliary agents for ophthalmic operation” (priority 2000, published 2003).

This data set relates to intraoperative bleeding in a patient suffering from diabetic retinopathy with increased intrinsic coagulation tendency. The data set is described as follows: Systemic drip infusion of argatroban during ophthalmic operation in a patient with diabetic retinopathy (Example 1). The settings on record: one patient. The format is in vivo. The procedure:
The present invention will be more specifically explained by referring to an example. However, as for as within the gist of the present invention, the present invention is not limited to the following example. As argatroban in the following example, a drug commercially available as the tradename “Slonnon” was used.
The patient was a youth suffering from diabetic retinopathy with increased intrinsic coagulation tendency. […] Argatroban 10 mg as one ample was added to a drip infusion (specify ingredients, and a tradename and name of a manufacturing company if commercially available) and systemically administered to the patient from the beginning of the operation. The operation was completed for 2 hours.
The above patient was a youth suffering from diabetic retinopathy with increased intrinsic coagulation tendency, and if treated under an ordinary operation, intraoperative bleedings would have expected to be easy clotting and caused operative difficulties.

The mark [1] stands for this setting: argatroban 10 mg drip infusion during operation.

For the compound `CC1CNc2c(cccc2S(=O)(=O)NC(CCCNC(=N)N)C(=O)N2CCC(C)CC2C(=O)O)C1` (mixture of isomers) [argatroban, (2R,4R)-4-methyl-1-[N^2((RS)-3-methyl-1,2,3,4-tetrahydro-8-quinolinesulfonyl)-L-arginyl]-2-piperidinecarboxylic acid monohydrate], under setting [1], the abnormal bleeding tendency entry is recorded as “No abnormal bleeding tendency was not observed” and the “ease of treatment of intraoperative bleeding” value is “treatment of intraoperative bleeding became easier”. Where the note is “argatroban 10 mg drip infusion, passive suction using a back flash needle”, the “removal of intraoperative bleedings” value is recorded as “successfully removed by passive suction using a back flash needle”. In addition, where the note is “argatroban 10 mg in drip infusion, systemic, from beginning of operation, 2 hour operation, treatment of fibrous vascular proliferating membrane”, the “preretinal clotting mass formation from intraoperative bleedings” value was “all of the bleedings did not give preretinal clotting mass”. For the same compound, the intraoperative iatrogenic tear result (during treatment of fibrous vascular proliferating membrane, argatroban 10 mg drip infusion) is reported as “no intraoperative iatrogenic tear was caused”.
